≈ marks a conversion by molar mass, not a printed value. Like-named read-outs stand apart in the source and are kept apart here.
Columns and labels:
[1] = target: T1, full-length beta-Catenin (Uniprot ID P35222) (Homo sapiens, UniProt P35222); assay: Fluorescence polarization IC50 (beta-catenin / 5FAM-TCF4 10-53 competition); format: binding
T1 construct: 10 nM full-length beta-Catenin (Uniprot ID P35222)
T1 sequence (P35222 1-781): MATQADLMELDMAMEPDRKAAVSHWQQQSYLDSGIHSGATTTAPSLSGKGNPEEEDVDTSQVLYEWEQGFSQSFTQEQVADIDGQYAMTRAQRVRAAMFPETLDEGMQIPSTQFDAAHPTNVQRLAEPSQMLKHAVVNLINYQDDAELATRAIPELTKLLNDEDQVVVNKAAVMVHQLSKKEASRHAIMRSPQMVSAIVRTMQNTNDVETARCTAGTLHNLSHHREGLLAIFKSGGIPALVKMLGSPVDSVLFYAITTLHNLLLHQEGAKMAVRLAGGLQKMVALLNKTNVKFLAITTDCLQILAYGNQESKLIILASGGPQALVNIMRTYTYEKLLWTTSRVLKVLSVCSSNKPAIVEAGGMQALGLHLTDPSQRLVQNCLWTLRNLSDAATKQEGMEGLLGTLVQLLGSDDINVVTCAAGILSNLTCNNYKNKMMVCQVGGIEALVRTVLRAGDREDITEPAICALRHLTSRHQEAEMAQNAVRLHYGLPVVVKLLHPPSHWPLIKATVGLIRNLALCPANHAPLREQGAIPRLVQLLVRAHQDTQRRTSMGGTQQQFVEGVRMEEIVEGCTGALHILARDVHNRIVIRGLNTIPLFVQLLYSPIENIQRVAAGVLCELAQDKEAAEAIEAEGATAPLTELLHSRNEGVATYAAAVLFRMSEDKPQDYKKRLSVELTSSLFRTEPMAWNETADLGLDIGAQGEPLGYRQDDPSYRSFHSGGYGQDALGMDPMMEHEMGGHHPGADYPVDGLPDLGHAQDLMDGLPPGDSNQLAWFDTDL

CHI Log D procedure = format: physicochemical; details: for chromatographic logD: pH 7.4, CHI Log D; for CHI Log D: pH 7.4
Solubility in PBS = format: physicochemical
Procedure, shortened: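 HPLC quantitation of peptide remaining in the PBS supernatant after ultracentrifugation, referenced to a 50 μM solution in DMSO.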

[2] = fluorescence polarization, read-out: beta-Catenin FP IC50

Row | Structure (SMILES) | IC50 [1, 2] [nM] | chromatographic logD (CHI Log D procedure) | Solubility (Solubility in PBS; Solubility (uM)) [µM] | Solubility (Solubility in PBS) [µM] | IC50 ([1]; read-out: FP EC50) [nM] | CHI Log D (CHI Log D procedure) | IC50 ([1]; read-out: beta-Catenin FP IC50) [nM]
1 | CC(=O)N1CCC[C@]12CC=CCCCC1(CCCC=CCCCCCC[C@@](C)(C(=O)N[C@@H](Cc3ccccc3)C(=O)N[C@@H](Cc3csc4ccccc34)C(=O)N[C@@H](Cc3c[nH]cn3)C(=O)N[C@@H](C)C(N)=O)NC(=O)[C@H](CC(N)=O)NC(=O)[C@H](Cc3ccccc3)NC(=O)[C@H](C)NC(=O)[C@H](C)NC(=O)[C@H](CCC(=O)O)NC(=O)[C@H](CC(=O)O)NC1=O)NC(=O)[C@H](CC(C)C)NC(=O)[C@H](CC(=O)O)NC2=O (stereo partly drawn) [I-738, Ac-PL3-Asp-Leu-B5-Asp-Glu-Ala-Ala-Phe-Asn-S8-Phe-BztA-His-Ala-NH2] | 63 | 2.46 | 41 (≈ 79.9 µg/mL) |  |  |  | 
2 | CC(=O)N1CCC[C@]12CC=CCCCC1(CCCC=CCCCCCC[C@@](C)(C(=O)N[C@@H](Cc3ccccc3)C(=O)N[C@@H](Cc3csc4ccccc34)C(=O)N[C@@H](Cc3c[nH]cn3)C(=O)N[C@H](C)C(N)=O)NC(=O)[C@H](CC(N)=O)NC(=O)[C@H](Cc3ccccc3)NC(=O)[C@H](C)NC(=O)[C@H](C)NC(=O)[C@H](CCC(=O)O)NC(=O)[C@H](CC(=O)O)NC1=O)NC(=O)[C@H](CC(C)C)NC(=O)[C@H](CC(=O)O)NC2=O (stereo partly drawn) [I-739, Ac-PL3-Asp-Leu-B5-Asp-Glu-Ala-Ala-Phe-Asn-S8-Phe-BztA-His-dAla-NH2] | 53 | 2.41 |  | 10 (≈ 19.5 µg/mL) |  |  | 
3 | CC[C@H](C)[C@H](NC(=O)[C@H](Cc1c[nH]cn1)NC(=O)[C@H](Cc1csc2ccccc12)NC(=O)[C@H](Cc1ccccc1)NC(=O)[C@]1(C)CCCCCCC=CCCCC2(CCCC=CC[C@]3(CCCN3C(C)=O)C(=O)N[C@@H](CC(=O)O)C(=O)N[C@@H](CC(C)C)C(=O)N2)C(=O)N[C@@H](CC(=O)O)C(=O)N[C@@H](CCC(=O)O)C(=O)N[C@@H](C)C(=O)N[C@@H](C)C(=O)N[C@@H](Cc2ccccc2)C(=O)N[C@@H](CC(N)=O)C(=O)N1)C(N)=O (stereo partly drawn) [I-741, Ac-PL3-Asp-Leu-B5-Asp-Glu-Ala-Ala-Phe-Asn-S8-Phe-BztA-His-Ile-NH2] | 226 |  |  | 10 (≈ 19.9 µg/mL) | 226 | 2.915 | 
4 | CC[C@@H](C)[C@@H](NC(=O)[C@H](Cc1c[nH]cn1)NC(=O)[C@H](Cc1csc2ccccc12)NC(=O)[C@H](Cc1ccccc1)NC(=O)[C@]1(C)CCCCCCC=CCCCC2(CCCC=CC[C@]3(CCCN3C(C)=O)C(=O)N[C@@H](CC(=O)O)C(=O)N[C@@H](CC(C)C)C(=O)N2)C(=O)N[C@@H](CC(=O)O)C(=O)N[C@@H](CCC(=O)O)C(=O)N[C@@H](C)C(=O)N[C@@H](C)C(=O)N[C@@H](Cc2ccccc2)C(=O)N[C@@H](CC(N)=O)C(=O)N1)C(N)=O (stereo partly drawn) [I-742, Ac-PL3-Asp-Leu-B5-Asp-Glu-Ala-Ala-Phe-Asn-S8-Phe-BztA-His-dIle-NH2] | 159 | 2.8 | 27 (≈ 53.8 µg/mL) |  |  |  | 
5 | CC(=O)N1CCC[C@]12CC=CCCCC1(CCCC=CCCCCCC[C@@](C)(C(=O)N[C@@H](Cc3ccccc3)C(=O)N[C@@H](Cc3csc4ccccc34)C(=O)N[C@@H](Cc3c[nH]cn3)C(=O)NC(C)(C)C(N)=O)NC(=O)[C@H](CC(N)=O)NC(=O)[C@H](Cc3ccccc3)NC(=O)[C@H](C)NC(=O)[C@H](C)NC(=O)[C@H](CCC(=O)O)NC(=O)[C@H](CC(=O)O)NC1=O)NC(=O)[C@H](CC(C)C)NC(=O)[C@H](CC(=O)O)NC2=O (stereo partly drawn) [I-743, Ac-PL3-Asp-Leu-B5-Asp-Glu-Ala-Ala-Phe-Asn-S8-Phe-BztA-His-Aib-NH2] | 85 | 2.6 | 29 (≈ 56.9 µg/mL) |  |  |  | 
6 | CC(=O)N1CCC[C@]12CC=CCCCC1(CCCC=CCCCCCC[C@@](C)(C(=O)N[C@@H](Cc3ccccc3)C(=O)N[C@@H](Cc3csc4ccccc34)C(=O)N[C@H](Cc3c[nH]cn3)C(N)=O)NC(=O)[C@H](CC(N)=O)NC(=O)[C@H](Cc3ccccc3)NC(=O)[C@H](C)NC(=O)[C@H](C)NC(=O)[C@H](CCC(=O)O)NC(=O)[C@H](CC(=O)O)NC1=O)NC(=O)[C@H](CC(C)C)NC(=O)[C@H](CC(=O)O)NC2=O (stereo partly drawn) [I-745, Ac-PL3-Asp-Leu-B5-Asp-Glu-Ala-Ala-Phe-Asn-S8-Phe-BztA-dHis-NH2] | 80 |  |  | 10 (≈ 18.8 µg/mL) | 80 | 2.61 | 
7 | CC(=O)N1CCC[C@]12CC=CCCCC1(CCCC=CCCCCCC[C@@](C)(C(=O)N[C@@H](Cc3ccccc3)C(=O)N[C@@H](Cc3csc4ccccc34)C(=O)N(C)[C@@H](Cc3cnc[nH]3)C(N)=O)NC(=O)[C@H](CC(N)=O)NC(=O)[C@H](Cc3ccccc3)NC(=O)[C@H](C)NC(=O)[C@H](C)NC(=O)[C@H](CCC(=O)O)NC(=O)[C@H](CC(=O)O)NC1=O)NC(=O)[C@H](CC(C)C)NC(=O)[C@H](CC(=O)O)NC2=O (stereo partly drawn) [I-747, Ac-PL3-Asp-Leu-B5-Asp-Glu-Ala-Ala-Phe-Asn-S8-Phe-BztA-NMeHis-NH2] | 2390 |  |  | 15 (≈ 28.4 µg/mL) | 2390 | 2.492 | 

The next lines start with the values.

Row | IC50 [1, 2] [nM] | chromatographic logD (CHI Log D procedure) | Solubility (Solubility in PBS; Solubility (uM)) [µM] | Solubility (Solubility in PBS) [µM] | IC50 ([1]; read-out: FP EC50) [nM] | CHI Log D (CHI Log D procedure) | IC50 ([1]; read-out: beta-Catenin FP IC50) [nM] | Structure (SMILES)
8 |  |  |  | 47 (≈ 86.6 µg/mL) | 88 | 2.684 | 88 | CC(=O)N1CCC[C@]12CC=CCCCC1(CCCC=CCCCCCC[C@@](C)(C(=O)N[C@@H](Cc3ccccc3)C(=O)N[C@@H](Cc3csc4ccccc34)C(=O)N[C@@H](C(N)=O)[C@H](C)O)NC(=O)[C@H](CC(N)=O)NC(=O)[C@H](Cc3ccccc3)NC(=O)[C@H](C)NC(=O)[C@H](C)NC(=O)[C@H](CCC(=O)O)NC(=O)[C@H](CC(=O)O)NC1=O)NC(=O)[C@H](CC(C)C)NC(=O)[C@H](CC(=O)O)NC2=O (stereo partly drawn) [I-755, Ac-PL3-Asp-Leu-B5-Asp-Glu-Ala-Ala-Phe-Asn-S8-Phe-BztA-dThr-NH2]
9 |  | 2.61 | 49 (≈ 89.6 µg/mL) |  |  |  | 56 | CC(=O)N1CCC[C@]12CC=CCCCC1(CCCC=CCCCCCC[C@@](C)(C(=O)N[C@@H](Cc3ccccc3)C(=O)N[C@@H](Cc3csc4ccccc34)C(=O)N[C@H](CO)C(N)=O)NC(=O)[C@H](CC(N)=O)NC(=O)[C@H](Cc3ccccc3)NC(=O)[C@H](C)NC(=O)[C@H](C)NC(=O)[C@H](CCC(=O)O)NC(=O)[C@H](CC(=O)O)NC1=O)NC(=O)[C@H](CC(C)C)NC(=O)[C@H](CC(=O)O)NC2=O (stereo partly drawn) [I-756, Ac-PL3-Asp-Leu-B5-Asp-Glu-Ala-Ala-Phe-Asn-S8-Phe-BztA-dSer-NH2]
10 |  |  |  | 47 (≈ 87.2 µg/mL) | 47 | 2.571 | 47 | CC(=O)N1CCC[C@]12CC=CCCCC1(CCCC=CCCCCCC[C@@](C)(C(=O)N[C@@H](Cc3ccccc3)C(=O)N[C@@H](Cc3csc4ccccc34)C(=O)N[C@H](CC(N)=O)C(N)=O)NC(=O)[C@H](CC(N)=O)NC(=O)[C@H](Cc3ccccc3)NC(=O)[C@H](C)NC(=O)[C@H](C)NC(=O)[C@H](CCC(=O)O)NC(=O)[C@H](CC(=O)O)NC1=O)NC(=O)[C@H](CC(C)C)NC(=O)[C@H](CC(=O)O)NC2=O (stereo partly drawn) [I-758, Ac-PL3-Asp-Leu-B5-Asp-Glu-Ala-Ala-Phe-Asn-S8-Phe-BztA-dAsn-NH2]
11 |  |  |  | 45 (≈ 86.9 µg/mL) | 14 | 2.212 | 14 | CC(=O)N1CCC[C@]12CC=CCCCC1(CCCC=CCCCOC(=O)N3CC[C@@](C(=O)N[C@@H](Cc4ccsc4)C(=O)N[C@@H](Cc4csc5ccccc45)C(=O)N[C@@H](CCC(N)=O)C(N)=O)(C3)NC(=O)[C@H](CCC(N)=O)NC(=O)[C@H](Cc3ccccc3)NC(=O)[C@H](C)NC(=O)[C@H](C)NC(=O)[C@H](CC(=O)O)NC(=O)[C@H](CC(=O)O)NC1=O)NC(=O)[C@H](CC(C)(C)C)NC(=O)[C@H](CC(=O)O)NC2=O (stereo partly drawn) [I-764, Ac-PL3-Asp-Npg-B5-Asp-Asp-Ala-Ala-Phe-Gln-PyrS2-3Thi-BztA-Gln-NH2]
12 |  |  |  | 49 (≈ 94.1 µg/mL) | 228 | 1.71 | 228 | CC(=O)N1CCC[C@]12CC=CCCCC1(CCCC=CCOC(=O)N(C)CCC[C@@](C)(C(=O)N[C@@H](Cc3ccsc3)C(=O)N[C@@H](Cc3csc4ccccc34)C(=O)N[C@@H](CCC(N)=O)C(N)=O)NC(=O)[C@H](CC(N)=O)NC(=O)[C@H](Cc3ccccc3)NC(=O)[C@H](C)NC(=O)[C@H](C)NC(=O)[C@H](CC(=O)O)NC(=O)[C@H](CC(=O)O)NC1=O)NC(=O)[C@H](CC(C)(C)C)NC(=O)[C@H](CC(=O)O)NC2=O (stereo partly drawn) [I-765, Ac-PL3-Asp-Npg-B5-Asp-Asp-Ala-Ala-Phe-Asn-SeN-3Thi-BztA-Gln-NH2]
13 |  |  |  | 50 (≈ 96 µg/mL) | 55 | 1.853 | 55 | CC(=O)N1CCC[C@]12CC=CCCCC1(CCCC=CCOC(=O)N(C)CCC[C@@](C)(C(=O)N[C@@H](Cc3ccsc3)C(=O)N[C@@H](Cc3csc4ccccc34)C(=O)N[C@@H](CCC(N)=O)C(N)=O)NC(=O)[C@H](CC(N)=O)NC(=O)[C@H](Cc3ccccc3)NC(=O)[C@H](C)NC(=O)[C@H](C)NC(=O)[C@H](CC(=O)O)NC(=O)[C@H](CC(=O)O)NC1=O)NC(=O)[C@H](CC(C)(C)C)NC(=O)[C@H](CC(=O)O)NC2=O (stereo partly drawn) [I-766, Ac-PL3-Asp-Npg-B5-Asp-Asp-Ala-Ala-Phe-Asn-SeN-3Thi-BztA-Gln-NH2]

Reference: patent US20240116985A1, “STAPLED PEPTIDES AND METHODS THEREOF” (priority 2020, published 2024)
